According to ChEMBL document CHEMBL1201862, “PubChem BioAssay data set” (2004):
Activity calls are given as the source filed them.

Key:
[1] = A Cell Based Secondary Assay To Explore Cytotoxicity of Compounds that Sensitize Mycobacterium Tuberculosis to Beta-Lactam Antibiotics.; assay type: functional
[2] = target: Neurotensin receptor type 1 (Homo sapiens, UniProt P30989); assay type: functional;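 further: Image-based confirmatory dose-response assay measuring agonist activity at NTR1; NTR1-expressing U2OS osteosarcoma cells imaged for beta-arrestin GFP spot formation; agonist potency where compounds increase beta-arrestin recruitment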
[3] = target: T1, Corticotropin-releasing factor receptor 2/Corticotropin-releasing factor-binding protein (Homo sapiens, UniProt P24387+Q13324); assay: activators of CRF receptor 2 with binding protein – uHTS hits, confirmation (AID 602473); assay type: functional; settings: read-out: EC50_Mean
T1 sequence (Q13324 whole entry): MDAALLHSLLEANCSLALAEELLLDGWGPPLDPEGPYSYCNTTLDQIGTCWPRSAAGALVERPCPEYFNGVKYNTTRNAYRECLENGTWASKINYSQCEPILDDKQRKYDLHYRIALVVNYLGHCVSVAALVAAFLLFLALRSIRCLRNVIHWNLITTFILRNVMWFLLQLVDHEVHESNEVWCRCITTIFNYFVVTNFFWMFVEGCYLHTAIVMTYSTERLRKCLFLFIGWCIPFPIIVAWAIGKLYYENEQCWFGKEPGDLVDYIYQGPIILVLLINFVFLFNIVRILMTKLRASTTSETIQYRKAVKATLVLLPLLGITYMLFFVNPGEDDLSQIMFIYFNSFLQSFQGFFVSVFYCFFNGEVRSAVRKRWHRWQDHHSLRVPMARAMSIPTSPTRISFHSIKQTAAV
T1 sequence (P24387 whole entry): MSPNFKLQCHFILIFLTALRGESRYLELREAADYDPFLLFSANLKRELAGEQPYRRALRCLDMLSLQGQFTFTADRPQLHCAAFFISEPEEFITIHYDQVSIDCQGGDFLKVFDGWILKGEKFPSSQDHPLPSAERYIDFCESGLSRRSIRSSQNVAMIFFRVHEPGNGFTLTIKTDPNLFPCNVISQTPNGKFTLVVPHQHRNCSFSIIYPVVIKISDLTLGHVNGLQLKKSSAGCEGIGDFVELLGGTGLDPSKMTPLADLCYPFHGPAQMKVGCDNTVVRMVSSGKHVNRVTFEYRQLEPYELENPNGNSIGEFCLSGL

Hexokinase = Hexokinase (Trypanosoma brucei, UniProt Q38C41); assay: Confirmation assay for inhibitors of Trypanosoma brucei hexokinase 1-Analogue-first series. [Related pubchem assays (depositor defined):AID1430, AID1632, AID2516, AID2560, AID2579, AID2600, AID449725, AID492951]; assay type: functional
[4] = NIH-3T3 fibroblast cytotoxicity, dose response, cytotoxicity control, cell-based, fluorescence, Alamar Blue, secondary assay (AID 2327); assay type: functional;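 further: NIH-3T3 mouse fibroblasts cultured with fluconazole at 8 µg/mL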
[5] = target: Eukaryotic translation initiation factor 4H (Homo sapiens, UniProt Q15056); assay: eIF4H binding inhibition – biochemical, uHTS, fluorescence polarization, translation initiation inhibitor project, primary screen (AID 2012)
[6] = target: T2, Voltage-gated N-type calcium channel alpha-1B subunit/Amyloid beta A4 precursor protein-binding family A member 1 (Homo sapiens, UniProt Q00975+Q02410); assay type: protein assay
[7] = fluconazole-exposed Candida albicans growth modulators – fluorescence, retest, confirmation (AID 2467); assay type: functional, cell-based
[8] = target: T2, Voltage-gated N-type calcium channel alpha-1B subunit/Amyloid beta A4 precursor protein-binding family A member 1; assay type: protein assay; remark: listed apart in the source
[9] = target: Polyadenylate-binding protein 1 (Homo sapiens, UniProt P11940); assay: blockers of PABP interaction with poly(A) – biochemical, fluorescence polarization, […] (AID 2014)
[10] = target: T3, Long-chain-fatty-acid--AMP ligase FadD28 (Mycobacterium tuberculosis, UniProt P9WQ59); assay: Fluorescence polarization aasay to screen for inhibitors that compete for the binding of FadD28 to a bisubstrate Measured in Biochemical System Using Plate Reader - 2147-01_Inhibitor_Dose_CherryPick_Activity.; assay type: functional, Mycobacterium tuberculosis H37Rv
T3 sequence (P9WQ59 whole entry): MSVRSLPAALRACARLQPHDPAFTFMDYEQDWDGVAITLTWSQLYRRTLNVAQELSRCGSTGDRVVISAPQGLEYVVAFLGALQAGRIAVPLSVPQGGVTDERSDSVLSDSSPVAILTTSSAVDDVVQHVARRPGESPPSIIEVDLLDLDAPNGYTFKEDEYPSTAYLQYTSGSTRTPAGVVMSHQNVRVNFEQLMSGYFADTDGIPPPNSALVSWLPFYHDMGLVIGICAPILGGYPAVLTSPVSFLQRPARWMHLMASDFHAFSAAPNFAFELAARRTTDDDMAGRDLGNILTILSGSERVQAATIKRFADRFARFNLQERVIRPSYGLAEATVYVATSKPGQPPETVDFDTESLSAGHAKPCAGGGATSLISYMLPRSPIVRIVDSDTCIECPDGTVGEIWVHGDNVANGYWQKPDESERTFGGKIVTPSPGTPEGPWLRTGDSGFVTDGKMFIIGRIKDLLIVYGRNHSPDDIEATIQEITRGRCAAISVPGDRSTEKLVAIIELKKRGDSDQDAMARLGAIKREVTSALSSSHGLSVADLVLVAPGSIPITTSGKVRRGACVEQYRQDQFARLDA

T2 sequence (Q00975 whole entry): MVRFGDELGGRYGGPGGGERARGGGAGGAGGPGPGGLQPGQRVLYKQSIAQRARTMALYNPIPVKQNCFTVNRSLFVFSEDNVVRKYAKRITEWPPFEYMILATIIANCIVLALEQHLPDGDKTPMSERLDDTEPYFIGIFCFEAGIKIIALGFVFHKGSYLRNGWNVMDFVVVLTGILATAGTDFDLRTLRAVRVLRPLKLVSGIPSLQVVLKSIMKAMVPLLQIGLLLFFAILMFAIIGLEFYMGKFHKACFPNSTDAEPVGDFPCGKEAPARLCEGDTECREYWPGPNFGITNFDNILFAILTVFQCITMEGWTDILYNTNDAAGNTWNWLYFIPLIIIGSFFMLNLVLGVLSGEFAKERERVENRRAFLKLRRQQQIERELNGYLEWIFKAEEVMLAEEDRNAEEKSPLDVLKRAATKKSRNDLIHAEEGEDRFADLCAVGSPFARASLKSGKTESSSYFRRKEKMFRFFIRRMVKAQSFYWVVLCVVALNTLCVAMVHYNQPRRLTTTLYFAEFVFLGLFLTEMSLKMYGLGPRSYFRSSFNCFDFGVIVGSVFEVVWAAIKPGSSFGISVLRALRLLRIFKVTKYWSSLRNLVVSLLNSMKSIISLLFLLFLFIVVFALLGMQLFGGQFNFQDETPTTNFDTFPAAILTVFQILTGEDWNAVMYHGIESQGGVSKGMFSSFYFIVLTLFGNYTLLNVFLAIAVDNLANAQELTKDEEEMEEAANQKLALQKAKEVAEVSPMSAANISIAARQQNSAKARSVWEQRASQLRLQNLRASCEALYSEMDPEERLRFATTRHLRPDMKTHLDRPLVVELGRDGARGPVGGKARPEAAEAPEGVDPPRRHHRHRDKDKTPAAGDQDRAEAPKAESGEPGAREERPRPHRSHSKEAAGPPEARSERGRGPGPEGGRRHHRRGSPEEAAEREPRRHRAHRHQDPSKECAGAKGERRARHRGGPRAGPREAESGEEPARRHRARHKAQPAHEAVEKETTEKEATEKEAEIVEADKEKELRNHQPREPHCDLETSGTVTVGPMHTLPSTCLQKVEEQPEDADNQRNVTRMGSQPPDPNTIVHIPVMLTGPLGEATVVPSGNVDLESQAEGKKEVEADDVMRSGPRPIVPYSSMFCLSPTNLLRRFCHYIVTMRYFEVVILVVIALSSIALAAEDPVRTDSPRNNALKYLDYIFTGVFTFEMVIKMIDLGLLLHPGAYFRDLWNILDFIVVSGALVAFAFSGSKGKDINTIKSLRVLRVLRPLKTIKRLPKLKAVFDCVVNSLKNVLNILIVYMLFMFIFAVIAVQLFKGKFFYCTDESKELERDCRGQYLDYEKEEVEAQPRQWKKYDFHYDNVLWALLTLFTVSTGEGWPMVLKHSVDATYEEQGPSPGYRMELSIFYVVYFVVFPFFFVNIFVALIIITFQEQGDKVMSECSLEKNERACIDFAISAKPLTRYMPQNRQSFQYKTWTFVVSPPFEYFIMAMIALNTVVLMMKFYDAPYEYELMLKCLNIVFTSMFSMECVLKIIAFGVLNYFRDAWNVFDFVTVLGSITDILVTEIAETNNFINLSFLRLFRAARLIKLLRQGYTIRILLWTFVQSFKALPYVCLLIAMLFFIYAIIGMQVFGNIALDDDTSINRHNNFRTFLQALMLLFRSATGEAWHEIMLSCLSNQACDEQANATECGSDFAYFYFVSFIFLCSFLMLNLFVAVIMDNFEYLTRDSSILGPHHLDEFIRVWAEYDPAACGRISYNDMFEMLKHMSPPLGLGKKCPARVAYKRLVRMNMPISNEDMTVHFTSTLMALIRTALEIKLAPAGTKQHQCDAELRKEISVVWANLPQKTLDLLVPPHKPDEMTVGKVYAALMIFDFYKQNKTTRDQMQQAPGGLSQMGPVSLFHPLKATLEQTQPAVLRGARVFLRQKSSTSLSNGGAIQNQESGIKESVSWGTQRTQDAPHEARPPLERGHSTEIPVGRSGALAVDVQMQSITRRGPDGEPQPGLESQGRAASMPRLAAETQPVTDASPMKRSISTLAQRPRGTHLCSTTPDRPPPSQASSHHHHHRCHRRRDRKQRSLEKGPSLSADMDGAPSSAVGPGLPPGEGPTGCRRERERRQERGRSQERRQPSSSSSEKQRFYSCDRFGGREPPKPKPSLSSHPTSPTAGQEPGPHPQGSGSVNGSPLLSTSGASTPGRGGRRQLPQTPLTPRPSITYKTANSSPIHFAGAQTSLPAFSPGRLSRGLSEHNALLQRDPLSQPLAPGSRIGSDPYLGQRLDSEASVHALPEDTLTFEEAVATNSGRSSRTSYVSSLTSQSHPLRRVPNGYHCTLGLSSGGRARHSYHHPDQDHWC
T2 sequence (Q02410 whole entry): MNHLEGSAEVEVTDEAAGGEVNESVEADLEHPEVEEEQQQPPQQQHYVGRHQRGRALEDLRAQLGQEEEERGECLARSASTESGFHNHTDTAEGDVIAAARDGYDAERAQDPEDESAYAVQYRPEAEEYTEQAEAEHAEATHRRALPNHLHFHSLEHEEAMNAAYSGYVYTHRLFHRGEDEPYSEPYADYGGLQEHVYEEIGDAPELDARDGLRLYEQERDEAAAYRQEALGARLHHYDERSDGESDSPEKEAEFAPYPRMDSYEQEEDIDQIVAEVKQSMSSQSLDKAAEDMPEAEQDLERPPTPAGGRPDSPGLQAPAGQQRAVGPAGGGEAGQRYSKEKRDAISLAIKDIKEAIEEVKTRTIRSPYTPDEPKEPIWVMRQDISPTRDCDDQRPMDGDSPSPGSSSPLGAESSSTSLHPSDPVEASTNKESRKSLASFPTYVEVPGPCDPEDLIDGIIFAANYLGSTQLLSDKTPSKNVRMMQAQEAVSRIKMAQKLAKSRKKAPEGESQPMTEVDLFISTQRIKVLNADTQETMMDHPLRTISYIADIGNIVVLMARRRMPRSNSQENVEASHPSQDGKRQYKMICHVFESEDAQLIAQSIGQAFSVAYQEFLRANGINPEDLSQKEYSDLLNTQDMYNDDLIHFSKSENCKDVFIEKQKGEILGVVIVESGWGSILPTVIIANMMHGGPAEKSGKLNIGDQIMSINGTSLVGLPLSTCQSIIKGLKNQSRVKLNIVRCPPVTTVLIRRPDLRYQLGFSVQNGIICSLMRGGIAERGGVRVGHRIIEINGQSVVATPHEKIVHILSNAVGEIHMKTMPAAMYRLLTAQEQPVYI
Hexokinase, sequence (Q38C41 whole entry): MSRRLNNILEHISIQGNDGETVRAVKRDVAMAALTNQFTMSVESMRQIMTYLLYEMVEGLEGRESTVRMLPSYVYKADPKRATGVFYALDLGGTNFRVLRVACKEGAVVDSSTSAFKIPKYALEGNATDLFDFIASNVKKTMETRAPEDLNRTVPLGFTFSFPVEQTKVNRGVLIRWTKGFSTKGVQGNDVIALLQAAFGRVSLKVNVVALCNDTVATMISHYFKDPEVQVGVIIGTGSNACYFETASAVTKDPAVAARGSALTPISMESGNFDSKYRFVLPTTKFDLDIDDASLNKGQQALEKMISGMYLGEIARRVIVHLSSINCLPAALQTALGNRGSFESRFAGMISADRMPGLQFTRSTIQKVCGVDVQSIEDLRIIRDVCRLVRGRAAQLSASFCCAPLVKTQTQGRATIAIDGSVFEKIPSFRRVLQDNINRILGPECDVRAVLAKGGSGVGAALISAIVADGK
Polyadenylate-binding protein 1, sequence (P11940 whole entry): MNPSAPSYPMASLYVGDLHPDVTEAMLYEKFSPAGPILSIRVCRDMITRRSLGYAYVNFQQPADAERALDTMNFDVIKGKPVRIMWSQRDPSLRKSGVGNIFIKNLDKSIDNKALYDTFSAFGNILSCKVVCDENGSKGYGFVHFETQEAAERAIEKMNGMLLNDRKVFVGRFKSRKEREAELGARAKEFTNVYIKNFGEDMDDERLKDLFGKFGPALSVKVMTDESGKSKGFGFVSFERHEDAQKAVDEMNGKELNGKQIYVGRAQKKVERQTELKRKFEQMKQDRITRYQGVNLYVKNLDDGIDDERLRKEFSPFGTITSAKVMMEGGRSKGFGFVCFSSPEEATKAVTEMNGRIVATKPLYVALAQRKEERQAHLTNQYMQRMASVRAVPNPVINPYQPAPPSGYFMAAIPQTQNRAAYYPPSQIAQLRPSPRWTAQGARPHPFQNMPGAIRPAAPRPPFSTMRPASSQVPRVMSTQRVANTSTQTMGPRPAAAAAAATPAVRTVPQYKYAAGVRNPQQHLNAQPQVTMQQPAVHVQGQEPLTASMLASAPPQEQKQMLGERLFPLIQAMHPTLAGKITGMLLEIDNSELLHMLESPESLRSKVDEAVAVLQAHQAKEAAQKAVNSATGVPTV
Neurotensin receptor type 1, sequence (P30989 whole entry): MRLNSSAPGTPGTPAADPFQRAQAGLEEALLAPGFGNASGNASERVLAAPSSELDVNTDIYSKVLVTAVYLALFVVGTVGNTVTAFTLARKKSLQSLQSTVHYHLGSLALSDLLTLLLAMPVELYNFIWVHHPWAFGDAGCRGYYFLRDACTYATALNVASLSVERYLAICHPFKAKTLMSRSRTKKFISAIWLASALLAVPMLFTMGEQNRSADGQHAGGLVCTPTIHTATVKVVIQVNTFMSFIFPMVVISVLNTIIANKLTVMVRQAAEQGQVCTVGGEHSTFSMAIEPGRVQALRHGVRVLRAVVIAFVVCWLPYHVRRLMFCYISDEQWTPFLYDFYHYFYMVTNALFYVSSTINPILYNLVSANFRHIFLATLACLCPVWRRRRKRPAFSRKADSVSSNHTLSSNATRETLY

In the case of `CCOC(=O)c1sc(Nc2nc3c(OC)cccc3s2)cc1C`, the CC50 [1] is reported as > 40 µM (active).
In the case of `CC1(C)CC(=O)C(=Cc2cn(-c3ccccc3)nc2-c2ccc(Cl)cc2)C(=O)C1`, the EC50 [2] is reported as 35.3 µM (inactive) and the EC50 [3] is reported as > 53 µM (inactive).
For `O=C(O)c1ccccc1NC(=O)c1ccccc1C(=O)O`, the IC50 (Hexokinase) was > 25 µM (inactive).
With `COc1ccc(C(=O)NC(CC(=O)O)c2ccccc2)cc1` (stereo not drawn) the IC50 (Hexokinase) was > 25 µM (inactive).
For `Cc1ccc(C(C)C)c(OCc2ccc(C(=O)N/N=C/c3ccc(C(=O)O)cc3)cc2)c1`, the CC50 [1] was > 40 µM (active).
For `NC(=S)n1[nH]c(-c2ccc([N+](=O)[O-])cc2)c(/N=N/c2cccc([N+](=O)[O-])c2)c1=O`, the EC50 [4] was > 150 µM (inactive), the IC50 [5] was 2.66 µM (active) and the IC50 [6] was 4 µM (active). For the same molecule, the EC50 [7] was 11.6 µM (active), the IC50 [8] was > 50 µM (inactive) and the IC50 [9] was 42.5 µM (active). For the same molecule, the AC50 [10] was 15.5 µM (active).
